The source made the active and inactive calls. How the calls were made is not given here.
Tested on: rodent lifetime carcinogenesis bioassay, tumor incidence TD50
Experiment: carcinogenic potency in animals, long-term in vivo studies, CPDB compilation (AID 1745844)

For CC[C@H]1CN2CCc3cc(OC)c(OC)cc3[C@@H]2C[C@@H]1C[C@H]1NCCc2cc(OC)c(OC)cc21, the TD50 (mouse, strain B6C3F1, females, i.p., site: any site (literature study), lesion: several types, types named in the paper, dosed 40 weeks, study length 78 weeks) was 1.2 mg/kg/day, the TD50 (mouse, strain B6C3F1, females, i.p., site: lung, lesion: alveolar/bronchiolar adenoma + alveolar/bronchiolar carcinoma, dosed 40 weeks, study length 78 weeks) was 49.4 mg/kg/day and the TD50 (mouse, strain B6C3F1, males, i.p., site: any site (literature study), lesion: several types, types named in the paper, dosed 44 weeks, study length 78 weeks) was 0.552 mg/kg/day. For the same compound, the TD50 (mouse, strain B6C3F1, males, i.p., site: liver, lesion: hepatocellular adenoma + hepatocellular carcinoma + neoplastic nodule, dosed 44 weeks, study length 78 weeks) was 1.3 mg/kg/day, the TD50 (mouse, strain B6C3F1, males, i.p., site: lung, lesion: alveolar/bronchiolar adenoma + alveolar/bronchiolar carcinoma, dosed 44 weeks, study length 78 weeks) was 1.19 mg/kg/day and the TD50 (rat, strain Sprague-Dawley, females, i.p., site: any site (literature study), lesion: several types, types named in the paper, dosed 52 weeks, study length 83 weeks) was 0.235 mg/kg/day. It also gave a TD50 (rat, strain Sprague-Dawley, males, i.p., site: any site (literature study), lesion: several types, types named in the paper, dosed 52 weeks, study length 83 weeks) of 0.382 mg/kg/day.

For S=C=NCCCc1ccccc1, the TD50 (rat, strain Fischer 344, males, in feed, site: testis, lesion: interstitial-cell tumor, dosed 89 weeks, study length 89 weeks) was 4.34 mg/kg/day.

C=CC(OC(C)=O)c1ccc2c(c1)OCO2 (configuration not stated) gave a TD50 (rat, strain Charles River CD (Sprague-Dawley), males, in feed, site: any site (literature study), lesion: several types, types named in the paper, dosed 36 weeks, study length 52 weeks) of 21.1 mg/kg/day, a TD50 (rat, strain Charles River CD (Sprague-Dawley), males, in feed, site: any site (literature study), lesion: several types, types named in the paper, dosed 47 weeks, study length 69 weeks) of 32.4 mg/kg/day and a TD50 (rat, strain Charles River CD (Sprague-Dawley), males, in feed, site: forestomach, lesion: papilloma, dosed 36 weeks, study length 52 weeks) of 21.1 mg/kg/day. The TD50 (rat, strain Charles River CD (Sprague-Dawley), males, in feed, site: forestomach, lesion: papilloma, dosed 47 weeks, study length 69 weeks) was 30.7 mg/kg/day, the carcinogen call (rat, strain Charles River CD (Sprague-Dawley), males, in feed, site: liver, lesion: carcinoma, dosed 47 weeks, study length 69 weeks) was “negative (inactive)” and the TD50 (rat, strain Charles River CD (Sprague-Dawley), males, in feed, site: liver, lesion: hepatocellular carcinoma, dosed 36 weeks, study length 52 weeks) was 348 mg/kg/day (inactive).

For O=[N+]([O-])c1cccc2cccnc12, the TD50 (rat, strain Fischer 344, females, in feed, site: forestomach, lesion: squamous-cell carcinoma, dosed 104 weeks, study length 104 weeks) was 32.8 mg/kg/day, the TD50 (rat, strain Fischer 344, females, in feed, site: forestomach, lesion: squamous-cell papilloma, dosed 104 weeks, study length 104 weeks) was 9.55 mg/kg/day and the carcinogen call (rat, strain Fischer 344, females, in feed, site: liver, lesion: hyperplastic nodule, dosed 104 weeks, study length 104 weeks) was “negative (inactive)”. The TD50 (rat, strain Fischer 344, males, in feed, site: forestomach, lesion: squamous-cell carcinoma, dosed 104 weeks, study length 104 weeks) was 24.9 mg/kg/day, the TD50 (rat, strain Fischer 344, males, in feed, site: forestomach, lesion: squamous-cell papilloma, dosed 104 weeks, study length 104 weeks) was 10.1 mg/kg/day and the carcinogen call (rat, strain Fischer 344, males, in feed, site: liver, lesion: hyperplastic nodule, dosed 104 weeks, study length 104 weeks) was “negative (inactive)”.

With CC(O)CN(CC(O)CO)N=O (configuration not stated) the TD50 (hamster, strain Syrian Golden, females, by gavage, site: forestomach, lesion: several types, types named in the paper, dosed 41 weeks, study length 75 weeks) was 1.59 mg/kg/day, the TD50 (hamster, strain Syrian Golden, females, by gavage, site: forestomach, lesion: squamous-cell papilloma, dosed 41 weeks, study length 75 weeks) was 1.59 mg/kg/day and the TD50 (hamster, strain Syrian Golden, females, by gavage, site: liver, lesion: cholangioadenoma, dosed 41 weeks, study length 75 weeks) was 32.6 mg/kg/day. For the same compound, the TD50 (rat, strain Fischer 344, females, in drinking water, site: esophagus, lesion: carcinoma, dosed 37 weeks, study length 85 weeks) was 0.117 mg/kg/day, the TD50 (rat, strain Fischer 344, females, in drinking water, site: esophagus, lesion: several types, types named in the paper, dosed 37 weeks, study length 85 weeks) was 0.0535 mg/kg/day and the TD50 (rat, strain Fischer 344, females, in drinking water, site: forestomach, lesion: several types, types named in the paper, dosed 37 weeks, study length 85 weeks) was 0.178 mg/kg/day. It also gave a TD50 (rat, strain Fischer 344, females, in drinking water, site: liver, lesion: hepatocellular carcinoma, dosed 37 weeks, study length 85 weeks) of 2.4 mg/kg/day, a TD50 (rat, strain Fischer 344, females, in drinking water, site: tongue, lesion: several types, types named in the paper, dosed 37 weeks, study length 85 weeks) of 0.0888 mg/kg/day and a TD50 (rat, strain Fischer 344, females, in drinking water, site: tongue, lesion: squamous-cell carcinoma, dosed 37 weeks, study length 85 weeks) of 0.241 mg/kg/day.

With c1ccc2sc(SSc3nc4ccccc4s3)nc2c1 the TD50 (mouse, strain B6AKF1, females, oral dosing, site: any site (literature study), lesion: several types, types named in the paper, dosed 76 weeks, study length 76 weeks) was 1380 mg/kg/day (inactive), the carcinogen call (mouse, strain B6AKF1, females, oral dosing, site: liver, lesion: hepatoma, dosed 76 weeks, study length 76 weeks) was “negative (inactive)” and the carcinogen call (mouse, strain B6AKF1, females, oral dosing, site: lung, lesion: adenoma, dosed 76 weeks, study length 76 weeks) was “negative (inactive)”. For the same compound, the TD50 (mouse, strain B6AKF1, males, oral dosing, site: any site (literature study), lesion: several types, types named in the paper, dosed 76 weeks, study length 76 weeks) was 511 mg/kg/day (inactive), the carcinogen call (mouse, strain B6AKF1, males, oral dosing, site: liver, lesion: hepatoma, dosed 76 weeks, study length 76 weeks) was “negative (inactive)” and the TD50 (mouse, strain B6AKF1, males, oral dosing, site: lung, lesion: adenoma, dosed 76 weeks, study length 76 weeks) was 1130 mg/kg/day (inactive). The TD50 (mouse, strain B6C3F1, females, oral dosing, site: any site (literature study), lesion: several types, types named in the paper, dosed 76 weeks, study length 76 weeks) was 432 mg/kg/day (inactive), the carcinogen call (mouse, strain B6C3F1, females, oral dosing, site: liver, lesion: hepatoma, dosed 76 weeks, study length 76 weeks) was “negative (inactive)” and the TD50 (mouse, strain B6C3F1, females, oral dosing, site: lung, lesion: adenoma, dosed 76 weeks, study length 76 weeks) was 669 mg/kg/day (inactive). The TD50 (mouse, strain B6C3F1, males, oral dosing, site: any site (literature study), lesion: several types, types named in the paper, dosed 76 weeks, study length 76 weeks) was 401 mg/kg/day (inactive), the TD50 (mouse, strain B6C3F1, males, oral dosing, site: liver, lesion: hepatoma, dosed 76 weeks, study length 76 weeks) was 621 mg/kg/day (inactive) and the carcinogen call (mouse, strain B6C3F1, males, oral dosing, site: lung, lesion: several types, types named in the paper, dosed 76 weeks, study length 76 weeks) was “negative (inactive)”.

In the case of CC1=NN(c2ccccc2)C(=O)C1, the carcinogen call (mouse, strain B6C3F1, females, in feed, site: any site (literature study), lesion: several types, types named in the paper, dosed 102 weeks, study length 104 weeks) is reported as “negative (inactive)”, the carcinogen call (mouse, strain B6C3F1, males, in feed, site: any site (literature study), lesion: several types, types named in the paper, dosed 102 weeks, study length 104 weeks) is reported as “negative (inactive)” and the carcinogen call (rat, strain Fischer 344, females, in feed, site: any site (literature study), lesion: several types, types named in the paper, dosed 103 weeks, study length 105 weeks) is reported as “negative (inactive)”. For the same compound, the carcinogen call (rat, strain Fischer 344, males, in feed, site: any site (literature study), lesion: several types, types named in the paper, dosed 103 weeks, study length 105 weeks) was “negative (inactive)” and the TD50 (rat, strain Fischer 344, males, in feed, site: liver, lesion: hepatocellular adenoma + hepatocellular carcinoma + neoplastic nodule, dosed 103 weeks, study length 105 weeks) was 3700 mg/kg/day.

Work on NNc1nc(-c2ccc([N+](=O)[O-])o2)cs1 yielded a TD50 (mouse, strain Swiss, females, in feed, site: any site (literature study), lesion: several types, types named in the paper, dosed 46 weeks, study length 55 weeks) of 7.57 mg/kg/day, a TD50 (mouse, strain Swiss, females, in feed, site: forestomach, lesion: squamous-cell papilloma, dosed 46 weeks, study length 55 weeks) of 16.4 mg/kg/day and a TD50 (rat, strain Sprague-Dawley, females, in feed, site: any site (literature study), lesion: several types, types named in the paper, dosed 46 weeks, study length 57 weeks) of 2.83 mg/kg/day. The TD50 (rat, strain Sprague-Dawley, females, in feed, site: kidney, lesion: several types, types named in the paper, dosed 46 weeks, study length 57 weeks) was 36.8 mg/kg/day, the TD50 (rat, strain Sprague-Dawley, females, in feed, site: liver, lesion: cystadenoma, dosed 46 weeks, study length 66 weeks) was 295 mg/kg/day and the TD50 (rat, strain Sprague-Dawley, females, in feed, site: mammary gland, lesion: adenocarcinoma, dosed 46 weeks, study length 57 weeks) was 7.79 mg/kg/day. It also gave a TD50 (rat, strain Sprague-Dawley, females, in feed, site: mammary gland, lesion: adenocarcinoma, dosed 46 weeks, study length 66 weeks) of 10.9 mg/kg/day, a TD50 (rat, strain Sprague-Dawley, females, in feed, site: mammary gland, lesion: adenofibroma, dosed 46 weeks, study length 57 weeks) of 25.2 mg/kg/day and a TD50 (rat, strain Sprague-Dawley, females, in feed, site: mammary gland, lesion: several types, types named in the paper, dosed 46 weeks, study length 57 weeks) of 2.83 mg/kg/day. It also gave a TD50 (rat, strain Sprague-Dawley, females, in feed, site: mammary gland, lesion: several types, types named in the paper, dosed 46 weeks, study length 66 weeks) of 3.66 mg/kg/day and a TD50 (rat, strain Sprague-Dawley, females, in feed, site: salivary gland, lesion: adenocarcinoma, dosed 46 weeks, study length 66 weeks) of 145 mg/kg/day.

Source: PubChem BioAssay AID1745844 (Carcinogenic Potency Database (CPDB), 2022)
